Measurements reported in patent US8063029B2, “Pharmaceutical composition” (FCB I LLC, priority 2002, dated 2011).

Experiments:
[1] = Solubility / miscibility in carrier fluids; assay type: physicochemical
Source text: In such situations, when the first fluid evaporates, the compound of interest is left in a supersaturated environment in which it is favorable for the compound to pass into a less saturated environment, in this case through the membrane. […] Accordingly, if increased flux for oxacyclohexadecan-2-one is desired, a carrier may include ethanol and propylene glycol and/or water. […] Accordingly, if increased flux for testosterone is desired, a carrier may include ethanol and water or ethanol and propylene glycol. In addition, water may be used to prevent “reverse-flux”, or the flow of water from the membrane into the matrix of the composition.

[2] = in vivo; cited from earlier work

In the case of `C[C@]12CC[C@H]3[C@@H](CCC4=CC(=O)CC[C@@]43C)[C@@H]1CC[C@@H]2O` [testosterone, 17β-hydroxyandrost-4-en-3-one], the solubility / miscibility ([1]; in ethanol) is reported as “soluble”, the solubility / miscibility ([1]; in propylene glycol) is reported as “partially soluble” and the solubility / miscibility ([1]; in water) is reported as “not soluble”. For the same molecule, the “typical half-life in the blood serum” value [2] was 10 to 100 min.
